Assay results published in patent US9902728B2, “Pyrrolo and pyrazolopyrimidines as ubiquitin-specific protease 7 inhibitors” (Forma Therapeutics, Inc., priority 2014, dated 2018).

molecular target: T1, USP7 (Homo sapiens, UniProt Q93009); test: USP7 Assay A (Ubitquin-Rhodamine 110 Assay); format: biochemical; conditions: USP7 activity in USP7 assay A and B (table does not say which assay per compound); read-out: USP7_IC50
T1 construct: USP7, construct USP7 (208-1102) 6*His, Viva Biotech; 6xHis (C); purchased Viva Biotech
Procedure, shortened: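 Ub-Rh110 cleavage in 20 mM Tris-HCl pH 8.0 with 1 mM GSH, 0.03% BGG, 0.01% Triton X-100; compound preincubated with enzyme 30 min before substrate.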

T1 sequence (Q93009 208-1102): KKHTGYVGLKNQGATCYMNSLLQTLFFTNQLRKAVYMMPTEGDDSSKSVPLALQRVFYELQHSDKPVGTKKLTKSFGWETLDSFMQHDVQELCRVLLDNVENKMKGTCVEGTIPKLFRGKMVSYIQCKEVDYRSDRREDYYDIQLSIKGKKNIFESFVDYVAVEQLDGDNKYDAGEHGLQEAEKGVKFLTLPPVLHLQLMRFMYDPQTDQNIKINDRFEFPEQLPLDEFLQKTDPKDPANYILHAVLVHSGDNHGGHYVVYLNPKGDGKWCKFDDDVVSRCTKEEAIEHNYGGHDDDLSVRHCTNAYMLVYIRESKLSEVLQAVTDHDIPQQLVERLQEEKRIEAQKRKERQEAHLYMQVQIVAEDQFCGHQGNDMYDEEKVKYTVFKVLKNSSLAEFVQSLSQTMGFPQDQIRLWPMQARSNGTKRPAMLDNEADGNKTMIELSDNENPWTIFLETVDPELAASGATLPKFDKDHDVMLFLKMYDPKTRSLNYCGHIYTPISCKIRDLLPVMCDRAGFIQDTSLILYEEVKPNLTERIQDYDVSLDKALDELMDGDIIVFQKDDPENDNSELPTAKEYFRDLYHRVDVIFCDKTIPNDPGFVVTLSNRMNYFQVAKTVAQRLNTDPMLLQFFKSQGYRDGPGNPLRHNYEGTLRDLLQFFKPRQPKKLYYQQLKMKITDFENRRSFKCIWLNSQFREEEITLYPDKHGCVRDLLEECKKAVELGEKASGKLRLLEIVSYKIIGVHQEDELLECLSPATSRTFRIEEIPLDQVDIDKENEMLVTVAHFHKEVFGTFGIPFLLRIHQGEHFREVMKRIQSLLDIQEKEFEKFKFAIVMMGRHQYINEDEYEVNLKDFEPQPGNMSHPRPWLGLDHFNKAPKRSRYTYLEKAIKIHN

Structure (SMILES)	IC50
O=C(c1ccc(F)cc1)N1CCC(O)(Cn2cnc3c(cnn3-c3ccc(N4CCCn5ccnc54)cc3)c2=O)CC1 [Compound I-1170]	0.2 to 1 µM
C[C@@H]1CN(c2ccc(-n3ncc4c(=O)n(CC5(O)CCN(C(=O)C6(C)CC6)CC5)cnc43)cc2)C[C@H](C)N1C [Compound I-1638]	< 0.2 µM
CC(C)(CO)n1cc(-c2ccc(-n3ncc4c(=O)n(CC5(O)CCN(C(=O)c6ccc(F)cc6)CC5)cnc43)cc2)cn1 [Compound I-1616]	0.2 to 1 µM
O=C(C1CCC(Oc2cnccn2)CC1)N1CCC(O)(Cn2cnc3c(cnn3-c3ccc(F)cc3)c2=O)CC1 (stereo not shown) [Compound I-1113]	< 0.2 µM
O=C(c1cccn1Cc1cccc(F)c1)N1CCC(O)(Cn2cnc3c(cnn3-c3ccc(F)cc3)c2=O)CC1 [Compound I-560]	0.2 to 1 µM
O=C(C1CC(Nc2cccnc2)C1)N1CCC(O)(Cn2cnc3c(cnn3-c3ccc(F)cc3)c2=O)CC1 (stereo not shown) [Compound I-1030]	0.2 to 1 µM
O=C(C1CC(Nc2ccccn2)C1)N1CCC(O)(Cn2cnc3c(cnn3-c3ccc(F)cc3)c2=O)CC1 (stereo not shown) [Compound I-1035]	0.2 to 1 µM
CN1CCN(c2ccc(-n3ncc4c(=O)n(CC5(O)CCN(C(=O)C[C@@H](C(F)F)n6cccn6)CC5)cnc43)cc2)CC1 (single isomer, unassigned) [Compound I-827]	1 to 10 µM
CC1(C(=O)N2CCC(O)(Cn3cnc4c(cnn4-c4ccc(N5CCC6(CC5)COC6)cc4)c3=O)CC2)CC1 [Compound I-1716]	< 0.2 µM
CC1(C(=O)N2CCC(O)(Cn3cnc4c(cnn4-c4cccc(N5CCC(C6COC6)CC5)c4)c3=O)CC2)CC1 [Compound I-1691]	0.2 to 1 µM
Cn1nccc1NC1CCC(C(=O)N2CCC(O)(Cn3cnc4c(cnn4-c4ccc(F)cc4)c3=O)CC2)CC1 (stereo not shown) [Compound I-764]	0.2 to 1 µM
Cc1cc(Oc2ccc(C(=O)N3CCC(O)(Cn4cnc5c(cnn5-c5ccc(F)cc5)c4=O)CC3)cc2)no1 [Compound I-563]	1 to 10 µM
Cc1cnn(-c2ccc(-n3ncc4c(=O)n(CC5(O)CCN(C(=O)c6ccc(F)cc6)CC5)cnc43)cc2)c1 [Compound I-1623]	1 to 10 µM
O=C(c1cnc(N2CCOCC2)o1)N1CCC(O)(Cn2cnc3c(cnn3-c3ccc(F)cc3)c2=O)CC1 [Compound I-555]	0.2 to 1 µM
CC1(C(=O)N2CCC(O)(Cn3cnc4c(cnn4-c4ccc(-c5cnn(C(F)F)c5)cc4)c3=O)CC2)CCC1 [Compound I-1721]	< 0.2 µM
CC(=O)N1CCC(O)(Cn2cnc3c(cnn3-c3ccc(Cl)cc3)c2=O)CC1 [Compound I-1625]	> 10 µM
O=C(c1cnc(C2CC2)o1)N1CCC(O)(Cn2cnc3c(cnn3-c3ccc(OCC4(F)CCC4)cc3)c2=O)CC1 [Compound I-981]	< 0.2 µM
C[C@@]1(O)CCN(c2ccc(-n3ncc4c(=O)n(CC5(O)CCN(C(=O)C[C@H](C(F)F)n6cccn6)CC5)cnc43)cc2)C1 [Compound I-834]	1 to 10 µM
C[C@@H](CC(=O)N1CCC(O)(Cn2cnc3c(cnn3-c3ccc(F)cc3)c2=O)CC1)n1ccc(F)n1 [Compound I-1029]	1 to 10 µM
O=C(c1ccc(-c2cnn3c2NCCC3)cc1)N1CCC(O)(Cn2cnc3c(cnn3-c3ccc(F)cc3)c2=O)CC1 [Compound I-552]	0.2 to 1 µM
O=C(c1ccc(F)cc1)N1CCC(O)(Cn2cnc3c(cnn3-c3ccc(-c4cnn(C5CCOCC5)c4)cc3)c2=O)CC1 [Compound I-1614]	0.2 to 1 µM
CN1CC[C@H](Oc2ccc(-c3ccc(-n4ncc5c(=O)n(CC6(O)CCN(C(=O)C7CC7)CC6)cnc54)cc3)cc2)C1 [Compound I-680]	0.2 to 1 µM
Cn1cc(Oc2ccc(C(=O)N3CCC(O)(Cn4cnc5c(cnn5-c5ccc(F)cc5)c4=O)CC3)cc2)cn1 [Compound I-562]	1 to 10 µM

same assay, conditions: USP7 assay A and B (table does not say which assay per compound); read-out: USP7_IC50

Structure (SMILES)	IC50
CC(=O)NC1CCN(c2ccc(-n3ncc4c(=O)n(CC5(O)CCN(C(=O)C6CC6)CC5)cnc43)cc2)CC1 [Compound I-1208]	1 to 10 µM
COc1ccc(C(=O)N2CCC(O)(Cn3cnc4c(cnn4-c4ccccc4)c3=O)CC2)cc1 [Compound I-157]	0.2 to 1 µM
O=C(c1ccccc1)N1CCC(O)(Cn2cnc3c(cnn3-c3ccccc3)c2=O)CC1 [Compound I-153]	1 to 10 µM
CN1CCCCC1CCc1ccc(-n2ncc3c(=O)n(CC4(O)CCN(C(=O)c5ccc(F)cc5)CC4)cnc32)cc1 (stereo not shown) [Compound I-1007, 5-((1-(4-fluorobenzoyl)-4-hydroxypiperidin-4-yl)methyl)-1-(4-(2-(1-methylpiperidin-2-yl)ethyl)phenyl)-1H-pyrazolo[3,4-d]pyrimidin-4(5H)-one]	1 to 10 µM
O=C(NCCO)c1cccc(-c2cccc(-n3ncc4c(=O)n(CC5(O)CCN(C(=O)C6CC6)CC5)cnc43)c2)c1 [Compound I-409]	1 to 10 µM
O=C(C1CC1)N1CCC(O)(Cn2cnc3c(cnn3-c3ccc(NS(=O)(=O)c4ccc(Cl)cc4)cc3)c2=O)CC1 [Compound I-1422]	1 to 10 µM
CN(C)c1ncc(C(=O)N2CCC(O)(Cn3cnc4c(cnn4-c4ccc(F)cc4)c3=O)CC2)o1 [Compound I-315]	1 to 10 µM
O=C(c1cnc(N2CCCCC2)o1)N1CCC(O)(Cn2cnc3c(cnn3-c3ccc(F)cc3)c2=O)CC1 [Compound I-536]	1 to 10 µM
COc1ccc(C(=O)N2CCC(O)(C(C)n3cnc4c(cnn4-c4ccc(F)cc4)c3=O)CC2)cc1 (stereo not shown) [Compound I-614]	> 10 µM
CS(=O)(=O)Nc1cccc(-n2ncc3c(=O)n(CC4(O)CCN(C(=O)C5CC5)CC4)cnc32)c1 [Compound I-1417]	1 to 10 µM
C[C@@](O)(c1ccc(C(=O)N2CCC(O)(Cn3cnc4c(cnn4-c4ccc(F)cc4)c3=O)CC2)cc1)C(F)(F)F [Compound I-527]	1 to 10 µM
CN(C)C(=O)N1CCC(O)(Cn2cnc3c(cnn3-c3ccc(OCC4CC4)cc3)c2=O)CC1 [Compound I-1289]	1 to 10 µM
Cc1nnc(-c2ccc(C(=O)N3CCC(O)(Cn4cnc5c(cnn5-c5ccc(F)cc5)c4=O)CC3)cc2)o1 [Compound I-911]	1 to 10 µM
CN1CCC(c2ccc(C(=O)N3CCC(O)(Cn4cnc5c(cnn5-c5ccc(F)cc5)c4=O)CC3)cc2)CC1 [Compound I-605]	> 10 µM
C#CC(=O)N[C@@H]1CC[C@@H]1C(=O)N1CCC(O)(Cn2cnc3c(cnn3-c3ccc(F)cc3)c2=O)CC1 [Compound I-952]	0.2 to 1 µM
O=C(c1ccc(N2CCOCC2)nc1)N1CCC(O)(Cn2cnc3c(cnn3-c3ccc(F)cc3)c2=O)CC1 [Compound I-419]	1 to 10 µM
O=C(C1CC1)N1CCC(O)(Cn2cnc3c(cnn3-c3cccc(Nc4ccc5ncsc5c4)c3)c2=O)CC1 [Compound I-1257]	0.2 to 1 µM
CC(C)c1ccc(-n2ncc3c(=O)n(CC4(O)CCN(C(=O)C5CC5)CC4)cnc32)cc1 [Compound I-27]	1 to 10 µM
C[C@@H](CC(=O)N1CCC(O)(Cn2cnc3c(cnn3-c3ccc(-c4ccccc4)cc3)c2=O)CC1)n1cccn1 [Compound I-649]	0.2 to 1 µM
Cc1ccc(C(=O)N2CCC(O)(Cn3cnc4c(cnn4-c4ccccc4)c3=O)CC2)cc1Cl [Compound I-211]	0.2 to 1 µM
O=C(c1ccc(-n2nccn2)cc1)N1CCC(O)(Cn2cnc3c(cnn3-c3ccc(Cl)cc3)c2=O)CC1 [Compound I-1129]	1 to 10 µM
O=C(c1ccc(F)cc1)N1CCC(O)(Cn2cnc3c(cnn3-c3cnn(-c4ccccc4)c3)c2=O)CC1 [Compound I-704]	1 to 10 µM
Cn1ncc2c(=O)n(CC3(O)CCN(C(=O)c4ccc(-c5ccccc5CC#N)cc4)CC3)cnc21 [Compound I-83]	1 to 10 µM
